The text below walks through data of ChEMBL document CHEMBL3739293, “Synthesis of unusual isoxazoline containingand-dipeptides as potential glutamate receptor ligands” (Medchemcomm, 2015).

The nature of test [1]: Displacement of [3H]AMPA from AMPA receptor in Sprague-Dawley rat brain synaptic membrane. Background: In a radioligand displacement assay an active substance lowers the binding of a labelled ligand.
Test [2] can be described thus: Displacement of [3H]KA from KA receptor in Sprague-Dawley rat brain synaptic membrane.
A further test has as its target Glutamate NMDA receptor. The experiment in a line: Displacement of [3H]CGP39653 from NMDA receptor in Sprague-Dawley rat brain synaptic membrane.

In test [1], `N[C@@H](CCC(=O)N1C[C@@H]2ON=C(O)[C@@H]2C1)C(=O)O` showed an IC50 of 43 µM and a negative-log IC50 (pIC50) of 4.37. In test [2], this compound registered an IC50 of 37 µM and a negative logarithm of the IC50 (pIC50) of 4.43. Besides, at Glutamate NMDA receptor, the affinity, expressed as Ki, was 25 µM and the pKi is recorded as 4.63.

The compound `N[C@H](CCC(=O)N1C[C@@H]2C(C(=O)O)=NO[C@@H]2C1)C(=O)O` gave an IC50 in test [1] greater than 100 µM. The same compound returned a half-inhibitory concentration (IC50) in test [2] greater than 100 µM. At Glutamate NMDA receptor, this compound showed an inhibition constant Ki of 58 µM and a pKi of 4.24.

In test [1], `N[C@@H](CCC(=O)N1C[C@@H]2ON=C(C(=O)O)[C@@H]2C1)C(=O)O` showed a half-inhibitory concentration (IC50) of 46 µM and a negative logarithm of the IC50 (pIC50) of 4.34. In test [2], this compound gave a half-maximal inhibitory concentration (IC50) of 66 µM and a negative-log IC50 (pIC50) of 4.2. On Glutamate NMDA receptor, this compound returned an inhibition constant (Ki) of 24 µM and a pKi of 4.64.

Turning to `N[C@H](CCC(=O)N1C[C@@H]2C(O)=NO[C@@H]2C1)C(=O)O`, the IC50 in test [1] and in test [2] was greater than 100 µM each time. On Glutamate NMDA receptor, this compound yielded a Ki greater than 100 µM.

For `N[C@H](CCC(=O)N1C[C@@H]2ON=C(C(=O)O)[C@@H]2C1)C(=O)O` (single isomer, unassigned), in test [1], the 50% inhibitory concentration (IC50) stood at 67 µM and the pIC50 turned out to be 4.18. In test [2], this compound returned a half-inhibitory concentration (IC50) of 56 µM and a pIC50 of 4.25. Besides, at Glutamate NMDA receptor, the affinity corresponds to a Ki of 28 µM and the pKi amounted to 4.56.

On to `N[C@@H](CCC(=O)N1C[C@@H]2C(C(=O)O)=NO[C@@H]2C1)C(=O)O` (single isomer, unassigned), for which, in test [1], the IC50 worked out at 34 µM and the pIC50 is listed as 4.48. Besides, in test [2], the IC50 came out at 40 µM and the pIC50 is given as 4.39. At Glutamate NMDA receptor, this compound returned a Ki of 21 µM and a negative logarithm of the Ki (pKi) of 4.68.

As for `N[C@H](CCC(=O)N1C[C@@H]2ON=C(O)[C@@H]2C1)C(=O)O` (single isomer, unassigned), the half-maximal inhibitory concentration (IC50) in test [1] and in test [2] was greater than 100 µM each time. Also, the Ki at Glutamate NMDA receptor is greater than 100 µM.

As for `N[C@@H](CCC(=O)N1C[C@@H]2C(O)=NO[C@@H]2C1)C(=O)O` (single isomer, unassigned), in test [1], the IC50 came out at 48 µM and the pIC50 is on record as 4.36. Also, in test [2], the IC50 came out at 59 µM and the negative logarithm of the IC50 (pIC50) worked out at 4.23. At Glutamate NMDA receptor, this compound gave a Ki of 41 µM and a negative logarithm of the Ki (pKi) of 4.41.

A word on the IC50: it is the concentration needed to halve the response being measured. Broadly, the pIC50 is the negative decadic logarithm of the IC50, by convention in mol/L. By Ki is commonly meant the equilibrium dissociation constant of an inhibitor or competing ligand from its target. For orientation: pKi means the negative decadic logarithm of the Ki, by convention in mol/L. High values mean a low Ki, low ones a high Ki.
